This experiment concerns CEM cells HIV-1 protection, formazan growth assay. Description: NCI AIDS Antiviral Assay. The following applies: for IC50: measured here: growth of uninfected CEM cells. An outline of the steps:
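CEM (human) cells, HIV-1 infected vs uninfected, 5-point dosing, formazan growth read-out. Retest threshold 50% protection.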

Calls of active or inactive are those of the source.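 Rule for the calls: active = compounds giving half or more protection of infected cells from virus-caused growth loss, again on retest; inactive = the rest.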

Regarding `Cc1ccc(C(CCO)CCO)nc1`, the EC50 is above 200 µM and the IC50 was above 200 µM.
In the case of `CCCCCCCOc1ccc(/C=C\c2cc[n+](CCCCCCCC[n+]3ccc(/C=C\c4ccc(OCCCCCCC)cc4)cc3)cc2)cc1`, the EC50 is above 6.46 µM and the IC50 was above 6.46 µM.
For the compound `COc1cccc(-c2c(C#N)c(N)nc3c2CCS(=O)(=O)c2ccc(C)cc2-3)c1`, the EC50 is above 200 µM and the IC50 is above 200 µM.
As to `CN(C)c1ccc(-c2c(C#N)c(O)n(NS(=O)(=O)c3ccccc3)c(=O)c2C#N)cc1`, the EC50 is above 200 µM and the IC50 was above 200 µM.
Take `CCCCCCCCCCCCCCCCCCNC(=S)NC=C(C(N)=O)C(N)=O`: the EC50 is above 100 µM and the IC50 is above 100 µM.
With `Cc1noc(C)c1-n1nc2ccc3nonc3c2n1`, the EC50 was above 200 µM and the IC50 was above 200 µM.
As for `Cc1ccc2c(c1)Nc1ccccc1P2(=O)O`, the EC50 is above 200 µM and the IC50 was above 200 µM.
As to `CCCc1cc(=O)c2c(C)c3[nH]c4ccc(Cl)cc4c3c(C)c2[nH]1`, the EC50 was above 200 µM and the IC50 worked out at 11 µM.
As to `O/N=C1/C(=C/c2ccc(OCc3ccccc3)cc2)CCCC1C(NO)c1ccc(OCc2ccccc2)cc1` (stereo not given), the EC50 is above 7.08 µM and the IC50 was above 7.08 µM.
Take `O=[N+]([O-])c1ccc(N/N=C/c2ccc(OCCCCCCCCCCCO)cc2)c([N+](=O)[O-])c1`: the EC50 is above 200 µM and the IC50 came out at 42.7 µM.
The like results for `Cc1nc2c(O)c3c(c(O)c2nc1C)C1C=CC3CC1` were, in that order, above 200 µM and 1.95 µM.
For `COc1ccc(Cc2cc(N=O)c(C)cc2O)cc1` the same measures were above 200 µM and 12.6 µM.
For `COc1ccc(/C=C/C(=O)CC(=O)/C=C/c2ccc(OC)cc2)cc1` the same measures were above 200 µM and above 200 µM.
In the case of `CC1(C)C2C=CC1C(=O)CC2` (stereo not given), the EC50 was above 389 µM and the IC50 was above 389 µM.
Take `CC1(c2ccccc2Cl)C(C#N)C(=O)NC(=O)C1C#N` (stereo not given): the EC50 is above 91.2 µM and the IC50 was determined as 46.8 µM.
Turning to `CN(C)CCCN1C(=O)N(CCCN(C)C)c2c3cc(O)ccc3nc3c([N+](=O)[O-])ccc1c23`, the EC50 was above 200 µM and the IC50 stood at 0.977 µM.
Regarding `Clc1ccccc1C(n1ncc2ccccc21)n1ncc2ccccc21`, the outcome was inactive.
For the compound `S=C1c2cc(Cl)ccc2NC(=NC2CCCC2)C2CSCN12` (stereo not given), the EC50 is above 200 µM and the IC50 turned out to be 33.9 µM.
For `[Ni+2].[O-]/C(=N\N=C/c1ccc(C(F)(F)F)cc1)c1ccncc1.[O-]/C(=N\N=C\c1ccc(C(F)(F)F)cc1)c1ccncc1` the same measures were above 100 µM and 16.6 µM.
As to `COc1c(NC(C)=O)cc(C)cc1NC(C)=O`, the result was inactive.
For `O=S(=O)(OI(OI(OS(=O)(=O)C(F)(F)F)c1ccccc1)c1ccccc1)C(F)(F)F`, the EC50 was above 347 µM and the IC50 is 6.92 µM.
For `COc1ccccc1CO[C@]1(C)CNCC(C)(C)NC(=O)[C@@](C)(OCc2ccccc2OC)CNCC(C)(C)NC1=O` the same measures were above 200 µM and above 200 µM.
The like results for `Cc1ncc(CO)c(CO)c1S` were, in that order, above 200 µM and above 200 µM.
As to `CSc1c(C(=O)Nc2ccc(Cl)cc2)c(N)n(N)c(=O)c1C#N`, the EC50 was above 200 µM and the IC50 worked out at 40.7 µM.
For `Cc1ccc(C)c2c1C(=O)N(c1ccccc1)C2=O` the same measures were above 200 µM and above 200 µM.
In the case of `CC12OC(=O)[C@@]3(O)CCC4C(C[C@H]5O[C@]56CC=CC(=O)[C@]46C)C45OC[C@H]6C(=O)O[C@@H]1C[C@@]6(C)[C@H](C4=O)C23O5` (stereo not given in full), the EC50 was above 200 µM and the IC50 turned out to be 0.398 µM.
Regarding `Cc1c(O)c(OC2OC(CO)C(O)C(O)C2O)cc2c1CC[C@@H]1C2(C)C(=O)C[C@]2(C)[C@@H]([C@@](C)(O)C3CCC(C)(C)O3)[C@H](O)C[C@@]12C` (stereo not given in full), the EC50 is above 200 µM and the IC50 is above 200 µM.
In the case of `CCC1CCC2c3c([nH]c4ccc(C)cc34)C3C(=O)N(N(C)C)C(=O)C3C2C1` (stereo not given), the EC50 is above 200 µM and the IC50 was above 100 µM.
`CN=CN(C)c1c2ccccc2nc2ccccc12`: the EC50 is above 200 µM and the IC50 is above 200 µM.
Take `N#C/C(=C/NC(N)=S)C(N)=O`: the EC50 was above 200 µM and the IC50 is above 200 µM.
On to `COc1ccccc1C1c2cc3c(cc2OC(N2CCOCC2)C1C)OCO3` (stereo not given), for which the EC50 is above 200 µM and the IC50 is 15.8 µM.
For `CC1(C)CN(CCC#N)C(c2ccc([N+](=O)[O-])cc2)O1` (stereo not given) the same measures were above 200 µM and 102 µM.
In the case of `CC(C)CC(=O)NC(Nc1ccc(S(=O)(=O)Nc2ncccn2)cc1)(C(F)(F)F)C(F)(F)F`, the EC50 was above 200 µM and the IC50 is above 200 µM.
Regarding `COC(=O)C1CC23CC1(OC(C)=O)CCC2c1ccc(OC)cc1C3=O` (stereo not given), the EC50 is above 61.7 µM and the IC50 was above 61.7 µM.
`C[C@]12CC[C@H](OS(=O)(=O)O)CC1CCC1C2CC[C@@]2(C)C1CC[C@@H]2CO` (stereo not given in full): the EC50 is above 60.3 µM and the IC50 is above 60.3 µM.
Take `O=c1c2cccnc2ncn1CCN1CCCCC1`: the outcome was inactive.
Still for that read-out and setting: under `C/C(Cc1ccccc1)=N\NC(N)=S` stands “inactive”.
With `O=C1NC(=O)[C@@]2(CC[C@@H](O)C2)c2ccncc21`, the EC50 was above 562 µM and the half-maximal inhibitory concentration (IC50) was 447 µM.
For the compound `C/C(O)=C(\C=N\C(=S)Nc1cccc(C(F)(F)F)c1)C(=O)Nc1ccccc1C`, the EC50 was above 100 µM and the IC50 stood at 75.9 µM.
For the compound `CC1(C)C2CCC1C(=O)[C@@]1(C=CC(=O)CC1)C2` (stereo not given in full), the EC50 was above 200 µM and the IC50 is above 200 µM.
For the compound `CCCCn1c2c(c3ccccc3c1=O)C(=O)c1ccccc1-2`, the EC50 was above 69.2 µM and the IC50 amounted to 33.9 µM.
The like results for `Cc1cn(CCCCCOC(=O)NC(CCCNC(N)=O)C(=O)O)c(=O)[nH]c1=O` (stereo not given) were, in that order, above 200 µM and above 200 µM.
The like results for `Cc1[nH]c2ccccc2c1C1Cc2ccccc2N1C(=O)/C=C\C(=O)O` (stereo not given) were, in that order, above 724 µM and 41.7 µM.
In the case of `COC(=O)[C@H](Cc1ccccc1)NP(=O)(OC)OCC1OC(n2cc(C)c(=O)[nH]c2=O)CC1N=[N+]=[N-]` (stereo not given in full), the EC50 was 83.2 µM and the IC50 is above 200 µM.
`OCCN(CCO)c1cccc(N(CCO)CCO)c1`: the result was inactive.
On the same count and under the same terms, next, `COC(=O)C1Cc2c(n(C)c3ccccc23)C(c2ccccc2)N1` (stereo not given): “inactive”.
In the case of `N#CC(C(=O)/C(=N/Nc1nc(=S)[nH]n1N)C(C#N)c1ccccc1)c1ccccc1` (stereo not given), the EC50 is above 17.4 µM and the IC50 is above 17.4 µM.
In the case of `CC(C)=[CH][Sb]([Br])([CH]=C(C)C)([CH]=C(C)C)[CH]=C(C)C`, the EC50 was above 589 µM and the IC50 was determined as 3.02 µM.
For `Cc1ccc(Nc2c3c(c(C#N)c4nc5ccccc5n24)CCCC3)cc1`, the EC50 is above 200 µM and the IC50 is 10.7 µM.
For `Cc1ccc(S(=O)(=O)N2CCCN(S(=O)(=O)c3ccc(C)cc3)CCSCCCSCC2)cc1` the same measures were above 200 µM and 31.6 µM.
Consider `CC(=O)OC1(C(C)=O)CC2(c3ccccc3)OC1(c1ccccc1)c1ccccc12` (stereo not given), for which the outcome was inactive.
Consider `COC(=O)C1(Cc2ccc3c(c2)CCC3)Cc2ccc3c(c2C1)CCC3` (stereo not given), for which the EC50 was above 200 µM and the IC50 was 37.2 µM.
The like results for `CSc1nc(N)n(C(=O)c2ccccc2Br)n1` were, in that order, above 417 µM and above 417 µM.
The like results for `CC12CCC(CC1)C(C)(C)N=C(N)S2` were, in that order, above 200 µM and 56.2 µM.
Turning to `CCOC(=O)Nn1cnnc1C`, the EC50 was above 200 µM and the IC50 is above 200 µM.
As to `O=C(N/C(=C\c1ccc(/C=C(\NC(=O)c2ccccc2)c2nc3cc(Cl)ccc3[nH]2)cc1)c1nc2cc(Cl)ccc2[nH]1)c1ccccc1`, the result was inactive.
Take `CC(O)CN1c2ccccc2Sc2ccc(Cl)cc21` (stereo not given): the EC50 was above 200 µM and the IC50 stood at 42.7 µM.
Consider `O=C(c1ccccc1)C(C(=O)c1ccccc1)C1(O)C(=O)c2ccccc2C1=O`, for which the result was inactive.
Take `CCCCCCCCCN1CCC(=O)C(C(=O)OC)C1` (stereo not given): the EC50 is above 200 µM and the IC50 came out at 4.68 µM.
As to `CC(=O)Nc1ccc(SC#N)c2c(NC(C)=O)cccc12`, the outcome was inactive.
Consider `O=C1Cc2c([nH]c3c(Cl)cccc23)-c2ccccc2N1`, for which the EC50 was above 200 µM and the IC50 was 11.5 µM.
`O=S1(=O)CCCc2c1ccc1ccccc21`: the EC50 was above 200 µM and the IC50 is above 200 µM.
Take `Brc1ccc2c(-c3csc(-c4c[nH]c5cc(Br)ccc45)n3)c[nH]c2c1`: the EC50 was above 200 µM and the IC50 was 52.5 µM.
For `CC(=O)OC12c3ccccc3C(c3ccccc31)C1C(=O)N(N=C(C)C)C(=O)C12` (stereo not given) the same measures were above 200 µM and above 200 µM.
As to `CSC1=N/C(=C\c2cccs2)C(=O)N1CN1CCCCC1`, the EC50 was above 200 µM and the IC50 is above 200 µM.
As to `C[N+]1(CCCCN2c3ccccc3Sc3cc(N=[N+]=[N-])ccc32)CCN(C(=O)CCNC(=O)Cc2ccc(C(=O)c3ccccc3)cc2)CC1`, the EC50 is above 100 µM and the IC50 came to 15.5 µM.
As for `CC(C)C(OC(=O)c1ccc(NCc2cc(O)ccc2O)cc1)C(C)C`, the EC50 is above 200 µM and the IC50 worked out at 1.41 µM.
For `C1CCC(CC[N+]23CC[N+](CCC4CCCC4)(CC2)C3)C1` the same measures were above 692 µM and 347 µM.
For the compound `CCNC12CCC(C1)C(C)(C)C2=O` (stereo not given), the EC50 was above 200 µM and the IC50 is above 200 µM.
For `COc1ccccc1OS(=O)(=O)c1ccc(C)cc1`, the outcome was inactive.
In the case of `CC(=O)OC1CSS(=O)CC1OC(C)=O` (stereo not given), the EC50 is above 513 µM and the IC50 stood at 22.9 µM.
The like results for `CCc1cccc(C)c1NC(=O)CC1C(=O)Nc2ccccc2S1(=O)=O` (stereo not given) were, in that order, above 10 µM and above 10 µM.
For `O=c1[nH]nnc2c1sc1ncccc12` the same measures were above 200 µM and above 200 µM.

Source of the values: PubChem BioAssay AID179 (DTP/NCI, 2004).
